This note sets out measurements from patent US5128347A, “Glycosidase inhibiting 1,4-dideoxy-4-fluoronojirimycin” (Monsanto Company, priority 1990, dated 1992).

Common to all, as to format: biochemical
One test concerns the target T1, yeast α-glucosidase (Saccharomyces cerevisiae, UniProt P53341).
T1 construct: purchased Sigma
Nature of the test: α-Glucosidase inhibition assay, pH 7.4. The following applies: 5 mM test compound, read-out: ALPHA GLUCOSIDASE pH 7.4 (enzyme inhibition). As for the experimental part:
(§1) The glycosidase inhibition activity is determined by modifying an assay procedure described in Evans et al, Phytochemistry, 22, pp. 768-770 (1983). More particularly, yeast α-glucosidase and almond β-glucosidase activities were measured by the Evans et al method which was modified by assaying activities at pH 7.4 in N-2-hydroxyethylpiperazine-N-2-ethane sulfonic acid (HEPES) buffer, measuring in 96 well microtiter plates, and including 10% DMSO in control and test samples.
(§2) The release of p-nitrophenol from the substrate p-nitrophenylglycoside was measured spectrophotometrically in the presence and absence of test compound. Each assay included a known inhibitor of the enzyme as a standard. […]
To 100 ul 50 mM HEPES buffer, pH 7.4, in a microtiter plate, 20 ul test compound in DMSO (DMSO alone in control)and 40 ul (0.013 units) yeast α-glucosidase (Sigma) in HEPES buffer were added and pre-incubated at room temperature 15 minutes. 40 ul 1.25 mM p-nitrophenyl-α-D-glucopyranoside (Sigma) in HEPES buffer, as substrate was added and the absorbance change at 405 nm was monitored in a Biotek EIA Autoreader. Absorption change was measured at 15 to 25 minutes (reaction was linear for at least 30 minutes). […] IC50 values were determined from the linear portion of the log concentration vs percent inhibition curve obtained from a minimum of 3 points. […]

Test [1] concerns almond β-glucosidase. Nature of the test: β-Glucosidase inhibition assay, pH 4.8. The following applies: 5 mM test compound. As for the experimental part: as §1
(§3) The release of p-nitrophenol from the substrate p-nitrophenylglycoside was measured spectrophotometrically in the presence and absence of test compound. Each assay included a known inhibitor of the enzyme as a standard. IC50 values were determined for compounds which inhibited the enzymes more than 50% at a 1 millimolar concentration.
β-Glucosidase Inhibition Assay
To 100 ul 50 mM sodium citrate buffer, pH 4.8, in a microtiter plate, 20 ul test compound in DMSO (DMSO alone in control) and 20 ul (0.017 units) β-glucosidase (Sigma) in citrate buffer were added and pre-incubated at room temperature 15 minutes. […] 50 ul 0.4 M NaOH was added and the absorption change at 405 nm was determined utilizing a Biotek EIA Autoreader. […] IC50 values were determined from the linear portion of the log concentration vs percent inhibition curve obtained from a minimum of 3 points. […]

Test [2] relates to almond β-glucosidase. Nature of the test: β-Glucosidase inhibition assay, pH 7.4. The following applies: 5 mM test compound. As for the experimental part: as §1, §2
To 100 ul 50 mM HEPES buffer, pH 7.4, in a microtiter plate, 20 ul test compound in DMSO (DMSO alone in control) and 40 ul (0.136 units) β-glucosidase (Sigma) in HEPES buffer were added and preincubated at room temperature 15 minutes. 40 ul 1.25 mM p-nitrophenyl-β-D-glucopyranoside in HEPES buffer was added as substrate and the absorbance change at 405 nm was monitored utilizing a Biotek EIA Autoreader. Absorption change was measured at 15 to 25 minutes (reaction is linear for at least 30 minutes). […] IC50 values were determined from the linear portion of the log concentration vs percent inhibition curve obtained from a minimum of 3 points. […]

In test [3] the target is T2, alpha mannosidase (Canavalia ensiformis, UniProt C0HJB3).
T2 sequence (C0HJB3 1-981): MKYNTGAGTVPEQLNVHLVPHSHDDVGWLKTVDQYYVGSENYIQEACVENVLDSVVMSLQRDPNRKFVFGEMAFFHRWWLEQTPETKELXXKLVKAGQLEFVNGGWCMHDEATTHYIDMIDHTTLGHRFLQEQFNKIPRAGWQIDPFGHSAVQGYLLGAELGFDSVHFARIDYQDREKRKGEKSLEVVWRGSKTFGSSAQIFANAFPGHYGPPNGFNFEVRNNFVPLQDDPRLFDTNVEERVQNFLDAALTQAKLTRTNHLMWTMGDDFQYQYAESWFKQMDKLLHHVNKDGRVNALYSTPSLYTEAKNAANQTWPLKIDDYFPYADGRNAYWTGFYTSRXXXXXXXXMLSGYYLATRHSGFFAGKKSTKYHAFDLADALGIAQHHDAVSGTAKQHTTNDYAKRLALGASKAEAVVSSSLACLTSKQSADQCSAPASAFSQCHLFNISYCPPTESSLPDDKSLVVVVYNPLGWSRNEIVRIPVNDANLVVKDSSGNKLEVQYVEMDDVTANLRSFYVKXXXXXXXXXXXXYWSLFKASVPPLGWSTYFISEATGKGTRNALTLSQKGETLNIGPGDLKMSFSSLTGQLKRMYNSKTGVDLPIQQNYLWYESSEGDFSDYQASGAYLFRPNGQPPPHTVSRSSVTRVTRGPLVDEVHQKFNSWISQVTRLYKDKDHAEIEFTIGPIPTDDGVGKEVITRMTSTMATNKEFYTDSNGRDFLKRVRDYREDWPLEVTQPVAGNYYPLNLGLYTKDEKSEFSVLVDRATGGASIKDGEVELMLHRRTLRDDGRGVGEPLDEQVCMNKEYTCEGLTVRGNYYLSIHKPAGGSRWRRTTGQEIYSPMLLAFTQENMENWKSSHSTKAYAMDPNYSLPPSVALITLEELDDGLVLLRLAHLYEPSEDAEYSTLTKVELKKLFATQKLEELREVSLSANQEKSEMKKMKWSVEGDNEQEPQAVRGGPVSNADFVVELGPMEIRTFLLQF
As to the kind of experiment: α-Mannosidase inhibition, pH 4.5. The note with it: 5 mM test compound, read-out: ALPHA MANNOSIDASE pH 4.5 (enzyme inhibition). The procedure:
as §3

Test [4] addresses T2, alpha mannosidase. Nature of the test: α-Mannosidase inhibition, pH 7.4. The following applies: 5 mM test compound, read-out: ALPHA MANNOSIDASE pH 7.4 (enzyme inhibition). As for the experimental part: as §3

T1 sequence (P53341 whole entry): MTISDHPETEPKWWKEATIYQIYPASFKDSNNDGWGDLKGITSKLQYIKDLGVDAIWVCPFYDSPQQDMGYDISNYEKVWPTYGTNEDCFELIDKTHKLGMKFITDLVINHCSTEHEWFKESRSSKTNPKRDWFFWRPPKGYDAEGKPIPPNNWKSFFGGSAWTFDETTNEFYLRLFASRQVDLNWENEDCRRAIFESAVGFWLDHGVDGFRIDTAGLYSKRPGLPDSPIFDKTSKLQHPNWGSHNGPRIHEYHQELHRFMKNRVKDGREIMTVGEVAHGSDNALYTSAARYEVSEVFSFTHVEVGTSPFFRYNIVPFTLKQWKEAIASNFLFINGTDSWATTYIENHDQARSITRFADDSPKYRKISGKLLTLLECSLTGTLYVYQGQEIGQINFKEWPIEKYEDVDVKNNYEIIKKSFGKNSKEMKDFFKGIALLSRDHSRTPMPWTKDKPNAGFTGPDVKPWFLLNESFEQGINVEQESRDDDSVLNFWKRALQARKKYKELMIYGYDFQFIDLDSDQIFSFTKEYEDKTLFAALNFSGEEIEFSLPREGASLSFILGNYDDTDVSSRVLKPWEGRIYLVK

By inhibition is commonly meant the change of the read-out against control, counted positive when it falls. For the compound `OC[C@H]1NC[C@H](O)[C@@H](O)[C@@H]1F` [Compound 1, 1,4-dideoxy-4-fluoronojirimycin], the inhibition at 5000 µM at yeast α-glucosidase is 18%; at alpha mannosidase [3], -2%; at alpha mannosidase [4], 12%. Further, the “BETA GLUCOSIDASE pH 4.8 (enzyme inhibition)” value with almond β-glucosidase [1] was 17%. Further, the “BETA GLUCOSIDASE pH 7.4 (enzyme inhibition)” value in the test with almond β-glucosidase [2] was 13%.
For `CCCCN1C[C@H](O)[C@@H](O)[C@H](F)[C@H]1CO` [Compound 2, N-butyl-1,4-dideoxy-4-fluoronojirimycin], in that order: 28%, -3%, 6%, 13% and 14%.
